# Test results from the NIST ThermoML archive (doi:10.1016/j.jct.2011.02.021).
# ± gives the expanded uncertainty stated by the source.
# Test: molar enthalpy of vaporization or sublimation
# Conditions: 298.15 K; Crystal; drop microcalorimetry
row,molar enthalpy [kcal/mol],SMILES
1,21.8 ± 0.956,CCc1occc(=O)c1O [2-ethyl-3-hydroxy-4H-pyran-4-one]
2,20.7 ± 0.717,"Cc1cc(=O)cc(C)o1 [2,6-dimethyl-γ-pyrone]"
